Measured values from PubChem BioAssay AID256 (DTP/NCI, 2004).
Values joined by “and” are separate entries in the source; they are usually repeats but may differ in a detail not shown here. Identical values can stand only once. Inconclusive results and toxic doses are left out. The calls were made as follows: active = survival T/C of 150% or more; inactive = T/C below 125% in these data.

Tested on: CD2F1 mice, L1210 leukemia ip, survival T/C
Test: NCI In Vivo Anticancer Drug Screen. Data for tumor model L1210 Leukemia (intraperitoneal) in CD2F1 (CDF1) mice
Conditions: endpoint: mean survival time, higher = longer survival
How it was run: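 Each value reflects a quotient of treated over vehicle control outcomes in mice with a transplanted tumor.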

[1] = dose: 100.0 mg/kg/injection, schedule: Q01DX009 (ip), vehicle: saline
[2] = dose: 200.0 mg/kg/injection, schedule: Q01DX009 (ip), vehicle: saline
[3] = dose: 400.0 mg/kg/injection, schedule: Q01DX009 (ip), vehicle: saline
[4] = dose: 100.0 mg/kg/injection, schedule: Q04DX003 (ip), vehicle: saline with Tween-80
[5] = dose: 200.0 mg/kg/injection, schedule: Q04DX003 (ip), vehicle: saline with Tween-80
[6] = dose: 400.0 mg/kg/injection, schedule: Q04DX003 (ip), vehicle: saline with Tween-80
[7] = dose: 100.0 mg/kg/injection, schedule: Q01DX009 (ip), vehicle: saline with Tween-80
[8] = dose: 200.0 mg/kg/injection, schedule: Q01DX009 (ip), vehicle: saline with Tween-80
[9] = dose: 400.0 mg/kg/injection, schedule: Q01DX009 (ip), vehicle: saline with Tween-80
[10] = dose: 100.0 mg/kg/injection, schedule: Q04DX003 (ip), vehicle: saline

Measured: T/C

C[n+]1c(-c2cccc3ccccc23)c2cc(N)ccc2c2ccccc21
inactive: dose: 0.78 mg/kg/injection, schedule: Q01DX009 (ip), vehicle: water 106 % of control | dose: 1.56 mg/kg/injection, schedule: Q01DX009 (ip), vehicle: saline 108 % of control | dose: 1.56 mg/kg/injection, schedule: Q01DX009 (ip), vehicle: water 103 % of control | dose: 3.12 mg/kg/injection, schedule: Q01DX009 (ip), vehicle: saline 118 % of control | dose: 3.13 mg/kg/injection, schedule: Q01DX009 (ip), vehicle: water 111 % of control | dose: 3.5 mg/kg/injection, schedule: Q01DX009 (ip), vehicle: water 104 % of control | dose: 5.3 mg/kg/injection, schedule: Q01DX009 (ip), vehicle: water 106 % of control | dose: 6.25 mg/kg/injection, schedule: Q01DX009 (ip), vehicle: saline 106 % of control | dose: 6.25 mg/kg/injection, schedule: Q01DX009 (ip), vehicle: water 97 % of control and 110 % of control | dose: 8.0 mg/kg/injection, schedule: Q01DX009 (ip), vehicle: water 114 % of control | dose: 12.0 mg/kg/injection, schedule: Q01DX009 (ip), vehicle: water 121 % of control | dose: 12.5 mg/kg/injection, schedule: Q01DX009 (ip), vehicle: saline 116 % of control | dose: 12.5 mg/kg/injection, schedule: Q01DX009 (ip), vehicle: water 119 % of control and 122 % of control | dose: 18.0 mg/kg/injection, schedule: Q01DX009 (ip), vehicle: water 112 % of control | dose: 25.0 mg/kg/injection, schedule: Q01DX009 (ip), vehicle: saline 93 % of control

NC(=O)CC(N)C(=O)O (centres undefined)
inactive: dose: 50.0 mg/kg/injection, schedule: Q01DX009 (ip), vehicle: other 102 % of control | dose: 50.0 mg/kg/injection, schedule: Q01DX009 (ip), vehicle: saline 97 % of control | dose: 100.0 mg/kg/injection, schedule: Q01DX009 (ip), vehicle: other 98 % of control | [1] 101 % of control | dose: 200.0 mg/kg/injection, schedule: Q01DX009 (ip), vehicle: other 98 % of control | [2] 103 % of control | dose: 400.0 mg/kg/injection, schedule: Q01DX009 (ip), vehicle: other 104 % of control | [3] 103 % of control | dose: 800.0 mg/kg/injection, schedule: Q01DX009 (ip), vehicle: other 104 % of control | dose: 800.0 mg/kg/injection, schedule: Q01DX009 (ip), vehicle: saline 100 % of control | dose: 1600.0 mg/kg/injection, schedule: Q01DX009 (ip), vehicle: other 98 % of control | dose: 1600.0 mg/kg/injection, schedule: Q01DX009 (ip), vehicle: saline 101 % of control

COC(=N)Cc1ccc(OC)c(OC)c1
inactive: [4] 102 % of control | [5] 96 % of control | [6] 94 % of control

Clc1cccc(N=Cc2ccc3c(c2)OCO3)c1Cl
inactive: dose: 100.0 mg/kg/injection, schedule: Q01DX001 (ip), vehicle: Klucel (hydroxypropylcellulose) (HPC) 100 % of control | dose: 200.0 mg/kg/injection, schedule: Q01DX001 (ip), vehicle: Klucel (hydroxypropylcellulose) (HPC) 97 % of control | dose: 400.0 mg/kg/injection, schedule: Q01DX001 (ip), vehicle: Klucel (hydroxypropylcellulose) (HPC) 103 % of control

CC1NC(=O)OC12CCCCC2 (centres undefined)
inactive: [7] 101 % of control | [8] 107 % of control

COc1ccc(NC(=O)c2ccc(C(=O)Nc3ccc(OC)cc3)cc2)cc1
inactive: [1] 96 % of control | [2] 90 % of control | [3] 98 % of control

BrC1C(Br)C2C3C=CC(c4ccccc43)C12 (centres undefined)
inactive: [7] 91 % of control | [4] 98 % of control | [8] 94 % of control | [5] 98 % of control | [9] 89 % of control | [6] 96 % of control

CC(=O)Oc1cc2c(OC(C)=O)c(-c3c(C)cc4c(C(C)C)c(OC(C)=O)c(OC(C)=O)cc4c3OC(C)=O)c(C)cc2c(C(C)C)c1OC(C)=O
inactive: dose: 25.0 mg/kg/injection, schedule: Q04DX002 (ip), vehicle: saline with Tween-80 100 % of control | dose: 50.0 mg/kg/injection, schedule: Q04DX002 (ip), vehicle: saline with Tween-80 96 % of control | dose: 100.0 mg/kg/injection, schedule: Q04DX002 (ip), vehicle: saline with Tween-80 89 % of control

O=C1CCSc2ccccc21
inactive: dose: 75.0 mg/kg/injection, schedule: Q01DX009 (ip), vehicle: saline with Tween-80 95 % of control | [4] 104 % of control | [10] 100 % of control | dose: 150.0 mg/kg/injection, schedule: Q01DX009 (ip), vehicle: saline with Tween-80 102 % of control | [5] 101 % of control | dose: 200.0 mg/kg/injection, schedule: Q04DX003 (ip), vehicle: saline 100 % of control | dose: 300.0 mg/kg/injection, schedule: Q01DX009 (ip), vehicle: saline with Tween-80 96 % of control | [6] 102 % of control | dose: 400.0 mg/kg/injection, schedule: Q04DX003 (ip), vehicle: saline 100 % of control

CSc1cccc(NC(=O)OCCOc2ccc(NC(C)=O)cc2)c1
inactive: [7] 101 % of control | [8] 97 % of control | [9] 93 % of control

CCOC(=O)C(Cc1ccccc1Cl)(Cc1ccccc1Cl)c1ccccc1
inactive: [4] 93 % of control | [5] 98 % of control | [6] 90 % of control

O=C1OC(=O)C2C3C=CC(C3)C12 (centres undefined)
inactive: dose: 12.5 mg/kg/injection, schedule: Q04DX003 (ip), vehicle: saline with Tween-80 95 % of control | dose: 25.0 mg/kg/injection, schedule: Q04DX003 (ip), vehicle: saline with Tween-80 101 % of control | dose: 50.0 mg/kg/injection, schedule: Q04DX003 (ip), vehicle: saline with Tween-80 95 % of control | dose: 100.0 mg/kg/injection, schedule: Q01DX001 (ip), vehicle: saline with Tween-80 98 % of control | [1] 102 % of control | [4] 101 % of control | dose: 200.0 mg/kg/injection, schedule: Q01DX001 (ip), vehicle: saline with Tween-80 100 % of control | [2] 96 % of control | [5] 102 % of control | dose: 400.0 mg/kg/injection, schedule: Q01DX001 (ip), vehicle: saline with Tween-80 93 % of control | [3] 90 % of control | [6] 102 % of control

O=C(O)C(Br)(Br)Br.[Ag]
inactive: [4] 92 % of control | [5] 89 % of control | [6] 97 % of control

C[N+](C)(C)CCOC(=O)c1cc(CBr)cc(CBr)c1
inactive: [10] 103 % of control

CN(Cc1ccccc1)CC1(CO)CC=CCC1 (centres undefined)
inactive: dose: 75.0 mg/kg/injection, schedule: Q01DX001 (ip), vehicle: saline 97 % of control | dose: 150.0 mg/kg/injection, schedule: Q01DX001 (ip), vehicle: saline 100 % of control

CN(C)N1C(=O)c2ccccc2C1=O
inactive: dose: 100.0 mg/kg/injection, schedule: Q04DX003 (ip), vehicle: other 96 % of control | dose: 200.0 mg/kg/injection, schedule: Q04DX003 (ip), vehicle: other 104 % of control | dose: 400.0 mg/kg/injection, schedule: Q04DX003 (ip), vehicle: other 98 % of control

O=C1C2=C(CCCC2)CN1c1ccccc1
inactive: dose: 50.0 mg/kg/injection, schedule: Q01DX009 (ip), vehicle: saline with Tween-80 98 % of control | [7] 98 % of control | [8] 107 % of control

C[C@H]1C[C@@H]2[C@H]([C@@H](O)C[C@@]3(C)[C@H]2CC[C@]3(O)C(=O)CF)[C@@]2(C)C=CC(=O)C=C12
inactive: dose: 100.0 mg/kg/injection, schedule: Q01DX001 (sc), vehicle: steriod suspending solution 98 % of control | dose: 200.0 mg/kg/injection, schedule: Q01DX001 (sc), vehicle: steriod suspending solution 101 % of control | dose: 400.0 mg/kg/injection, schedule: Q01DX001 (sc), vehicle: steriod suspending solution 108 % of control
